Data: ChEMBL document CHEMBL4825763, “Discovery of potent and selective Bcl-2 inhibitors with acyl sulfonamide skeleton” (Bioorg Med Chem, 2021)
pIC50: −log10 of the molar value. The source made the active and inactive calls. No cut-off for these calls is given here.

Tests used:
[1] = target: Apoptosis regulator Bcl-2 (Homo sapiens, UniProt P10415); test: Displacement of Bak derived peptide from Bcl-2 (unknown origin) measured after 15 mins by microplate reader assay
[2] = target: Bcl-2-like protein 1 (Homo sapiens, UniProt Q07817); test: Displacement of Bak derived peptide from Bcl-xL (unknown origin) measured after 15 mins by microplate reader assay
[3] = tested on: RS4-11; test: Antiproliferative activity against human RS4-11 cells assessed as inhibition of cell proliferation measured after 72 hrs by CCK8 assay; type: functional, cell-based; settings: RS4-11, 72 h
[4] = target: T1, Caspase-3 (Canis lupus familiaris) (UniProt Q8MKI5); test: Induction of caspase 3 activity in dog platelets assessed as cleavage of Ac-DEVD-Pna at 0.5 to 2.5 uM using Ac-DEVD-pNA as substrate incubated for 90 mins; type: tissue-based; settings: Platelet, dose 0.5-2.5 µM
T1 sequence (whole entry): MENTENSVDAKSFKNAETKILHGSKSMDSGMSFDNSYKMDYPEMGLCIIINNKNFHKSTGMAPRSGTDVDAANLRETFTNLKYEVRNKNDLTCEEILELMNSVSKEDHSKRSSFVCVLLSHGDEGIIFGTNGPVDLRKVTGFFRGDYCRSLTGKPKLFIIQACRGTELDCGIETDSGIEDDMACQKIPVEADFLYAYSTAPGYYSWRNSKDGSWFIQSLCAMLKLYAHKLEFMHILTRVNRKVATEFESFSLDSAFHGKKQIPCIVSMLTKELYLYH

[5] = Toxicity in C57BL/6 mouse plasma assessed as effect on platelet count at 300 mg/kg, ig for 4 hrs; type: organism-based; settings: in vivo, po
[6] = Metabolic stability in mouse liver microsomes assessed as parent compound remaining incubated for 60 mins in presence of NADPH; type: ADME, Microsome; settings: read-out: Stabilty
[7] = Metabolic stability in rat liver microsomes assessed as parent compound remaining incubated for 60 mins in presence of NADPH; type: ADME, Microsome; settings: read-out: Stabilty
[8] = Metabolic stability in human liver microsomes assessed as parent compound remaining incubated for 60 mins in presence of NADPH; type: ADME, Microsome; settings: read-out: Stabilty
[9] = Tmax in rat at 5 mg/kg, ig administered as single dose measured upto 24 hrs by LC-MS/MS analysis; type: ADME, organism-based; settings: in vivo, po
[10] = Cmax in rat at 5 mg/kg, ig administered as single dose measured upto 24 hrs by LC-MS/MS analysis; type: ADME, organism-based; design: route intragastric, dose 5 mg/kg, time <=24; settings: in vivo, po
[11] = AUC (0 to t) in rat at 5 mg/kg, ig administered as single dose measured upto 24 hrs by LC-MS/MS analysis; type: ADME, organism-based; design: route intragastric, dose 5 mg/kg, time <=24; settings: in vivo, po
[12] = AUC (0 to infinity) in rat at 5 mg/kg, ig administered as single dose measured upto 24 hrs by LC-MS/MS analysis; type: ADME, organism-based; design: route intragastric, dose 5 mg/kg, time <=24; settings: in vivo, po
[13] = Half life in rat at 5 mg/kg, ig administered as single dose measured upto 24 hrs by LC-MS/MS analysis; type: ADME, organism-based; settings: in vivo, po
[14] = MRT (0 to t) in rat at 5 mg/kg, ig administered as single dose measured upto 24 hrs by LC-MS/MS analysis; type: ADME, organism-based; settings: in vivo, po
[15] = Tmax in mouse at 10 mg/kg, ig administered as single dose measured upto 24 hrs by LC-MS/MS analysis; type: ADME, organism-based; settings: in vivo, po
[16] = Cmax in mouse at 10 mg/kg, ig administered as single dose v measured upto 24 hrs by LC-MS/MS analysis; type: ADME, organism-based; design: route intragastric, dose 10 mg/kg, time <=24; settings: in vivo, po
[17] = AUC (0 to t) in mouse at 10 mg/kg, ig administered as single dose measured upto 24 hrs by LC-MS/MS analysis; type: ADME, organism-based; design: route intragastric, dose 10 mg/kg, time <=24; settings: in vivo, po
[18] = AUC (0 to infinity) in mouse at 10 mg/kg, ig administered as single dose measured upto 24 hrs by LC-MS/MS analysis; type: ADME, organism-based; design: route intragastric, dose 10 mg/kg, time <=24; settings: in vivo, po
[19] = Half life in mouse at 10 mg/kg, ig administered as single dose measured upto 24 hrs by LC-MS/MS analysis; type: ADME, organism-based; settings: in vivo, po
[20] = MRT (0 to t) in mouse at 10 mg/kg, ig administered as single dose measured upto 24 hrs by LC-MS/MS analysis; type: ADME, organism-based; settings: in vivo, po

Chain of Apoptosis regulator Bcl-2 (P10415 whole entry): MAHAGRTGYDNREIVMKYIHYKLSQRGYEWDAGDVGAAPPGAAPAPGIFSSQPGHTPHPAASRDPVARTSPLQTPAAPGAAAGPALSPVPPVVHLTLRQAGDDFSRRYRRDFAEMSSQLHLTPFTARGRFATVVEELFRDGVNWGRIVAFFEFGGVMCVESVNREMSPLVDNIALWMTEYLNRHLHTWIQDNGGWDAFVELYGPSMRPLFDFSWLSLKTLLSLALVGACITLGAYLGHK
Chain of Bcl-2-like protein 1 (Q07817 whole entry): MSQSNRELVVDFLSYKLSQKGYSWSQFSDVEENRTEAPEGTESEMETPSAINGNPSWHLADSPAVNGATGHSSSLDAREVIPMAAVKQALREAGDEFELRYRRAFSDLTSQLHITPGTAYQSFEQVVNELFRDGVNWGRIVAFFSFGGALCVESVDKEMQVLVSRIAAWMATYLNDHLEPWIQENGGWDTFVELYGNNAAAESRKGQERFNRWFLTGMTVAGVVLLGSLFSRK

Structure (SMILES)	pIC50 [1]	pIC50 [2]	pIC50 [3]	other results
CC1(C)CCC(CN2CCN(c3ccc(C(=O)NS(=O)(=O)c4ccc(NCC5CCOCC5)c([N+](=O)[O-])c4)c(Oc4cnc5[nH]ccc5c4)c3)CC2)=C(c2ccc(C(F)(F)F)cc2)C1	8.82	6.10	8.21	–
CN(C)CCCNc1ccc(S(=O)(=O)NC(=O)c2ccc(N3CCN(CC4=C(c5ccc(C(F)(F)F)cc5)CC(C)(C)CC4)CC3)cc2Oc2cnc3[nH]ccc3c2)cc1[N+](=O)[O-]	9.05	7.54	8.41	–
CC1(C)CCC(CN2CCN(c3ccc(C(=O)NS(=O)(=O)c4ccc(NCC5CCOCC5)c([N+](=O)[O-])c4)c(Oc4cnc5[nH]ccc5c4)c3)CC2)=C(c2cccc(C(F)(F)F)c2)C1	–	–	7.20	–
CC1(C)CCC(CN2CCN(c3ccc(C(=O)NS(=O)(=O)c4ccc(NCC5CCOCC5)c([N+](=O)[O-])c4)c(Oc4cnc5[nH]ccc5c4)c3)CC2)=C(c2ccc(Cl)cc2C(F)(F)F)C1	–	< 5.70	7.13	–
CC1(C)CCC(CN2CCN(c3ccc(C(=O)NS(=O)(=O)c4ccc(NCC5CCOC5)c([N+](=O)[O-])c4)c(Oc4cnc5[nH]ccc5c4)c3)CC2)=C(c2ccc(C(F)(F)F)cc2)C1 (stereo unspecified)	8.33	6.05	7.62	–
CC1(C)CCC(CN2CCN(c3ccc(C(=O)NS(=O)(=O)c4ccc(NC5CCOC5)c([N+](=O)[O-])c4)c(Oc4cnc5[nH]ccc5c4)c3)CC2)=C(c2ccc(C(F)(F)F)cc2)C1 (stereo unspecified)	8.72	6.08	7.49	–
CC1(C)CCC(CN2CCN(c3ccc(C(=O)NS(=O)(=O)c4ccc(NCC5CCOCC5)c([N+](=O)[O-])c4)c(Oc4cnc5[nH]ccc5c4)c3)CC2)=C(c2ccccc2C(F)(F)F)C1	8.77	6.70	7.74	–
CC1(C)CCC(CN2CCN(c3ccc(C(=O)NS(=O)(=O)c4ccc(NCC5CCOCC5)c([N+](=O)[O-])c4)c(Oc4cnc5[nH]ccc5c4)c3)CC2)=C(c2ccc(Cl)cc2)C1 [VENETOCLAX]	–	–	8.74	Activity [4]: inactive; Activity [5]: Toxic; remaining at 1 h [6]: 58.8%; remaining at 1 h [7]: 46.3%; remaining at 1 h [8]: 54.9%; Tmax [9]: 2.67 h; Cmax [10]: 0.355 µg/mL; AUC(0-t) at 24 h [11]: 1.38 µg·h/mL; AUC(0-inf) [12]: 1.47 µg·h/mL; half-life [13]: 1.9 h; MRT last at 24 h [14]: 3.55 h; Tmax [15]: 1.67 h; Cmax [16]: 1.31 µg/mL; AUC(0-t) at 24 h [17]: 7.76 µg·h/mL; AUC(0-inf) [18]: 8.1 µg·h/mL; half-life [19]: 2.78 h; MRT last at 24 h [20]: 4.71 h
CC1(C)CCC(CN2CCN(c3ccc(C(=O)NS(=O)(=O)c4ccc(OCC5CCOCC5)c([N+](=O)[O-])c4)c(Oc4cnc5[nH]ccc5c4)c3)CC2)=C(c2ccc(C(F)(F)F)cc2)C1	9.00	6.06	8.23	Activity [4]: inactive; Activity [5]: Non-Toxic; remaining at 1 h [6]: 76.6%; remaining at 1 h [7]: 74.8%; remaining at 1 h [8]: 75.8%; Tmax [9]: 2.67 h; Cmax [10]: 0.438 µg/mL; AUC(0-t) at 24 h [11]: 2.62 µg·h/mL; AUC(0-inf) [12]: 3.13 µg·h/mL; half-life [13]: 4.5 h; MRT last at 24 h [14]: 5.18 h; Tmax [15]: 4 h; Cmax [16]: 0.92 µg/mL; AUC(0-t) at 24 h [17]: 6.96 µg·h/mL; AUC(0-inf) [18]: 7 µg·h/mL; half-life [19]: 2.99 h; MRT last at 24 h [20]: 5.7 h
CC1(C)CCC(CN2CCN(c3ccc(C(=O)NS(=O)(=O)c4ccc(OCC5CCSCC5)c([N+](=O)[O-])c4)c(Oc4cnc5[nH]ccc5c4)c3)CC2)=C(c2ccc(C(F)(F)F)cc2)C1	8.78	6.30	7.82	–
CC1(C)CCC(CN2CCN(c3ccc(C(=O)NS(=O)(=O)c4ccc(NCC5CCOCC5)c([N+](=O)[O-])c4)c(Oc4cnc5[nH]ccc5c4)c3)CC2)=C(c2ccc(C(F)(F)F)c(Cl)c2)C1	–	< 5.70	7.09	–
CC(Oc1ccc(S(=O)(=O)NC(=O)c2ccc(N3CCN(CC4=C(c5ccc(C(F)(F)F)cc5)CC(C)(C)CC4)CC3)cc2Oc2cnc3[nH]ccc3c2)cc1[N+](=O)[O-])C1CCOCC1 (stereo unspecified)	8.04	6.21	6.57	–
CC1(C)CCC(CN2CCN(c3ccc(C(=O)NS(=O)(=O)c4ccc(OC5CCOCC5)c([N+](=O)[O-])c4)c(Oc4cnc5[nH]ccc5c4)c3)CC2)=C(c2ccc(C(F)(F)F)cc2)C1	8.08	< 5.70	6.43	–
CC1(C)CCC(CN2CCN(c3ccc(C(=O)NS(=O)(=O)c4ccc(OCC5CCOC5)c([N+](=O)[O-])c4)c(Oc4cnc5[nH]ccc5c4)c3)CC2)=C(c2ccc(C(F)(F)F)cc2)C1 (stereo unspecified)	8.36	5.77	7.33	–
CCN1CCC(COc2ccc(S(=O)(=O)NC(=O)c3ccc(N4CCN(CC5=C(c6ccc(C(F)(F)F)cc6)CC(C)(C)CC5)CC4)cc3Oc3cnc4[nH]ccc4c3)cc2[N+](=O)[O-])CC1	9.30	7.46	8.31	–
CC(C)C(=O)N1CCC(CNc2ccc(S(=O)(=O)NC(=O)c3ccc(N4CCN(CC5=C(c6ccc(C(F)(F)F)cc6)CC(C)(C)CC5)CC4)cc3Oc3cnc4[nH]ccc4c3)cc2[N+](=O)[O-])CC1	8.62	6.34	8.28	–
CC1(C)CCC(CN2CCN(c3ccc(C(=O)NS(=O)(=O)c4ccc(OCC5CCCOC5)c([N+](=O)[O-])c4)c(Oc4cnc5[nH]ccc5c4)c3)CC2)=C(c2ccc(C(F)(F)F)cc2)C1 (stereo unspecified)	8.52	6.12	7.92	–
CN1CCC(COc2ccc(S(=O)(=O)NC(=O)c3ccc(N4CCN(CC5=C(c6ccc(C(F)(F)F)cc6)CC(C)(C)CC5)CC4)cc3Oc3cnc4[nH]ccc4c3)cc2[N+](=O)[O-])C1 (stereo unspecified)	9.12	7.77	8.00	–
COc1ccc(C2=C(CN3CCN(c4ccc(C(=O)NS(=O)(=O)c5ccc(NCC6CCOCC6)c([N+](=O)[O-])c5)c(Oc5cnc6[nH]ccc6c5)c4)CC3)CCC(C)(C)C2)cc1	8.42	6.09	7.92	–
CCN(CC)CCCNc1ccc(S(=O)(=O)NC(=O)c2ccc(N3CCN(CC4=C(c5ccc(C(F)(F)F)cc5)CC(C)(C)CC4)CC3)cc2Oc2cnc3[nH]ccc3c2)cc1[N+](=O)[O-]	9.52	7.60	8.52	–
CN1CCC(CNc2ccc(S(=O)(=O)NC(=O)c3ccc(N4CCN(CC5=C(c6ccc(C(F)(F)F)cc6)CC(C)(C)CC5)CC4)cc3Oc3cnc4[nH]ccc4c3)cc2[N+](=O)[O-])C1 (stereo unspecified)	8.62	7.45	8.08	–
